Reference: article PMC7279038, “Antioxidant and Neuroprotective Effects Induced by Cannabidiol and Cannabigerol in Rat CTX-TNA2 Astrocytes and Isolated Cortexes” (International Journal of Molecular Sciences, 2020)

Columns and labels:
Conditions in all cases: mean ± S.D., n = 3
[1] = ABTS scavenging ability test
Description: For the 2,2′-azino-bis(3-ethylbenzothiazoline) 6-sulfonic acid (ABTS) radical scavenging assay, ABTS+ was produced directly by reacting 7 mM ABTS solution with 2.45 mM potassium persulfate and allowing the mixture to stand for […] in the dark at room temperature. Prior to beginning the assay, ABTS solution was diluted with methanol to an absorbance of 0.700 ± 0.02 at 734 nm. Sample solution was added to ABTS solution (2 mL) and mixed. The sample absorbance was read at 734 nm after a 30 min incubation at room temperature. The ABTS radical scavenging activity was expressed as IC50 values.

[2] = Ferric reducing antioxidant power (FRAP)
Description: For the ferric reducing antioxidant power (FRAP) activity assay, sample solution was added to premixed FRAP reagent (2 mL) containing acetate buffer (0.3 M, pH 3.6), 2,4,6-tris(2-pyridyl)-S-triazine (TPTZ) (10 mM) in 40 mM HCl and ferric chloride (20 mM) in a ratio of 10:1:1 (v/v/v). Then, the sample absorbance was read at 593 nm after a 30 min incubation at room temperature. FRAP activity was expressed as IC50 values.

[3] = Cupric reducing antioxidant capacity (CUPRAC)
Description: For the cupric ion reducing activity (CUPRAC) activity assay, sample solution was added to premixed reaction mixture containing CuCl2 (1 mL, 10 mM), neocuproine (1 mL, 7.5 mM) and NH4Ac buffer (1 mL, 1 M, pH 7.0). Similarly, a blank was prepared by adding sample solution (0.5 mL) to premixed reaction mixture […] without CuCl2. Then, the sample and blank absorbances were read at 450 nm after a 30 min incubation at room temperature. The absorbance of the blank was subtracted from that of the sample. CUPRAC activity was expressed as IC50 values.

[4] = DPPH scavenging ability test
Description: For the 1,1-diphenyl-2-picrylhydrazyl (DPPH) radical scavenging assay, sample solution was added to 4 mL of a 0.004% methanol solution of DPPH. The sample absorbance was read at 517 nm after a 30 min incubation at room temperature in the dark. DPPH radical scavenging activity was expressed as IC50 values.

Cc1c(C)c2c(c(C)c1O)CCC(C)(C(=O)O)O2 (stereo not shown) [Trolox] showed an IC50 [1] of 410 ± 10 µM, an IC50 [2] of 180 ± 10 µM and an IC50 [3] of 500 ± 10 µM. It also gave an IC50 [4] of 210 ± 10 µM.
